# Patent US10399953B2, “Preparation of furan fatty acids from 5-(chloromethyl)furfural” (THE REGENTS OF THE UNIVERSITY OF CALIFORNIA, priority 2015, dated 2019)
# Experiment: 2,2-diphenyl-1-picrylhydrazyl (DPPH) radical scavenging assay
# Format: biochemical
# Details: for DPPH Scavenging %: 30 minutes, room temperature, dark, absorption at 517 nm; for antioxidant activity (quenching of the DPPH radical), in words: 25, 50 and 100 μg/mL
# Description: The antioxidant activity of the FFAs has been evaluated by a range of methods, including spin trapping of N-oxide radicals (Okada et al. (1996) Biol. Pharm. Bull. 19: 1607), inhibition of radically initiated oxygen uptake in linoleic acid (Okada et al. (1990) J. Am. Oil Chem. Soc. 67: 858) and unsaturated fatty acid moieties of phosphatidyl choline liposomes (Ishii et al. (1989) Chem. Pharm. Bull. 37: 1396), and acting as a substrate for plant lipoxygenase (Batna and Spiteller (1994) Lipids 29: 397). We have evaluated the free radical scavenging abilities of synthetic FFAs 5a (n=1, m=9, R^1=R^2=H) and 5b (n=1, m=9, R^1=R^2=Me) against butylated hydroxytoluene (BHT) by 2,2-diphenyl-1-picrylhydrazyl (DPPH) assay.
# The method of Moon and Shibamoto (Moon and Shibamoto (2009) J. Agric. Food Chem. 57: 1655) was used to evaluate antioxidant activity. DPPH (0.0177 g) was dissolved in methanol (MeOH) (100 mL) and 500 μL of this solution was added into test tubes containing 11-(5-propylfuran-2-yl)undecanoic acid and 11-(3,4-dimethyl-5-propylfuran-2-yl)undecanoic acid at concentrations of 25, 50, and 100 μg/mL after dilution of stock solutions with MeOH to 1.0 mL total volume. A 1.0 mg/mL BHT stock solution (100 μL) was diluted with 400 μL methanol and the DPPH solution (500 μL). A control solution was prepared by adding methanol (500 μL) into the DPPH solution (500 μL), and a methanol blank was used for the baseline correction. The tubes were allowed to stand at room temperature in the dark for 30 minutes and the change in the absorption at 517 nm was measured by UV-visible spectrometry. Radical scavenging ability was expressed as DPPH scavenging % and calculated using this formula: DPPH scavenging %=(control abs.−sample abs./control abs.)×100.
smiles,measurement,setting,value
"Cc1cc(C(C)(C)C)c(O)c(C(C)(C)C)c1 [BHT, butylated hydroxytoluene, reference compound]",inhibition (DPPH assay),100 μg/mL,93%
same,DPPH Scavenging %,100 μg/mL,93%
"CCCc1ccc(CCCCCCCCCCC(=O)O)o1 [Compound 5a, 11-(5-Propylfuran-2-yl)undecanoic Acid]",DPPH Scavenging %,25 μg/mL,4%
same,DPPH Scavenging %,50 μg/mL,−2%
same,DPPH Scavenging %,100 μg/mL,−3%
same,"antioxidant activity (quenching of the DPPH radical), in words",,virtually no antioxidant activity
"CCCc1oc(CCCCCCCCCCC(=O)O)c(C)c1C [Compound 5b, 11-(3,4-Dimethyl-5-propylfuran-2-yl)undecanoic Acid]",DPPH Scavenging %,25 μg/mL,7%
same,DPPH Scavenging %,50 μg/mL,27%
same,inhibition (DPPH assay),100 μg/mL,53%
same,DPPH Scavenging %,100 μg/mL,53%
same,"antioxidant activity (quenching of the DPPH radical), in words",,concentration-dependent quenching of the DPPH radical
same,antioxidant power relative to BHT on a mass basis,"of BHT, mass basis, 100 μg/mL",57%
same,antioxidant power relative to BHT based on molar concentrations,"of BHT, recalculated on molar concentrations",83%
